Source: patent CN116462616A, “炔酰胺类化合物及其应用” (Jinan University, priority 2022, dated 2023)

Experiments:
[1] = target: T1, bovine serum albumin [牛血清蛋白] (Bos taurus, UniProt P02769); experiment: Covalent modification of amino acid residues of a pure protein (gel fluorescence after click chemistry); assay type: binding; details: 10.0 μM probe, 1 mg/mL protein, 37 °C, 3 h
[2] = test system: proteins of HepG2 cells [人源肝癌细胞HepG2]; experiment: Covalent modification of protein amino acid residues in tumour cells (live-cell labelling, gel fluorescence); assay type: cell-based, human; details: HepG2, 50 μM probe, 37 °C, 3 h
HepG2 cells [HepG2细胞] = experiment: Selective modification of acidic amino acid residues in cells (biological mass spectrometry); assay type: cell-based, human; details: 100 μM, 37 °C, 8 h
GAPDH = target: T2, GAPDH (Homo sapiens, UniProt P04406); experiment: Pull-down and western blot, GAPDH; assay type: binding; details: 50 μM, HepG2/H3255 cells, 37 °C, 5 h
T2 construct: 50μM分子探针YN-1和YN-4与HepG2/H3255细胞于37℃孵育5h; endogenous in cells; host or cells: HepG2/H3255

[3] = target: T1, bovine serum albumin [牛血清蛋白]; experiment: Selective modification of acidic amino acid residues of a pure protein (biological mass spectrometry); assay type: binding; details: 100 μM, 37 °C, 0.5 h
ECH1 = target: T3, ECH1 (Homo sapiens, UniProt Q13011); experiment: Pull-down and western blot, ECH1; assay type: binding; details: 50 μM, HepG2/H3255 cells, 37 °C, 5 h
T3 construct: 50μM分子探针YN-1和YN-4与HepG2/H3255细胞于37℃孵育5h; endogenous in cells; host or cells: HepG2/H3255
T3 sequence (Q13011 34-328): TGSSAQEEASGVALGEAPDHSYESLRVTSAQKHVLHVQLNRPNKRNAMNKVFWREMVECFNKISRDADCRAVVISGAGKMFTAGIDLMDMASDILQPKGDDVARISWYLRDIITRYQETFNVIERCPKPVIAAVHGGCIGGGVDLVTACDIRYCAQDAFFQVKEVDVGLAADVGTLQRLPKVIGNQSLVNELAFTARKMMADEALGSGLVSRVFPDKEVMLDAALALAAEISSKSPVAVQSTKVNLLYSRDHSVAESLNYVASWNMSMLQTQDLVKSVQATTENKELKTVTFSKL

ALDH1 = target: T4, ALDH1 (Homo sapiens, UniProt P00352); experiment: Pull-down and western blot, ALDH1; assay type: binding; details: 50 μM, HepG2/H3255 cells, 37 °C, 5 h
T4 construct: 50μM分子探针YN-1和YN-4与HepG2/H3255细胞于37℃孵育5h; endogenous in cells; host or cells: HepG2/H3255
T4 sequence (P00352 1-501): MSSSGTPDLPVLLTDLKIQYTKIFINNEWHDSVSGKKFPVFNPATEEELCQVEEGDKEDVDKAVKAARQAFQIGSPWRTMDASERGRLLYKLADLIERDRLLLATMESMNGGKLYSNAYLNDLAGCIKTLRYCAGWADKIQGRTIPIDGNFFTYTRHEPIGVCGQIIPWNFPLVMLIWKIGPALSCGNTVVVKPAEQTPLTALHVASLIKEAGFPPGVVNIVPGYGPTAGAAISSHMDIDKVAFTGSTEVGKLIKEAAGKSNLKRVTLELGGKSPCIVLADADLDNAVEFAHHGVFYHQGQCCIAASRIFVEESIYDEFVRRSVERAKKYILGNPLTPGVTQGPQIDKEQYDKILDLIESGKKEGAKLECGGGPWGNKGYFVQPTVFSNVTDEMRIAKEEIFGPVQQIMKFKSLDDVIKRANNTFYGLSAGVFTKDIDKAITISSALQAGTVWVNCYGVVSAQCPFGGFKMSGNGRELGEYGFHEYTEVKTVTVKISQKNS

MEK2 = target: T5, MEK2 (Homo sapiens, UniProt P36507); experiment: Pull-down and western blot, MEK2; assay type: binding; details: 50 μM, HepG2/H3255 cells, 37 °C, 5 h
T5 construct: 50μM分子探针YN-1和YN-4与HepG2/H3255细胞于37℃孵育5h; endogenous in cells; host or cells: HepG2/H3255
T5 sequence (P36507 whole entry): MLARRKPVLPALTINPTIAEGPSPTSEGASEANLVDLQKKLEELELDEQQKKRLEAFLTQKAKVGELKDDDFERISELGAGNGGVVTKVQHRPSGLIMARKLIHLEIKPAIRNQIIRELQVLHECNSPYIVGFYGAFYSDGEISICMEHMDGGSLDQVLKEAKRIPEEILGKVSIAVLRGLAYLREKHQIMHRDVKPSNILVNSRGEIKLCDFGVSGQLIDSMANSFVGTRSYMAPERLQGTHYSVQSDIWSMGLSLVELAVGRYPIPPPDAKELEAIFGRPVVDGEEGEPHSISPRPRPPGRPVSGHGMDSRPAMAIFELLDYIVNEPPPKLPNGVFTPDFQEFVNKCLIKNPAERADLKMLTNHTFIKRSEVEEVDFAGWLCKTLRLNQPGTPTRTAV

T1 sequence (P02769 25-607): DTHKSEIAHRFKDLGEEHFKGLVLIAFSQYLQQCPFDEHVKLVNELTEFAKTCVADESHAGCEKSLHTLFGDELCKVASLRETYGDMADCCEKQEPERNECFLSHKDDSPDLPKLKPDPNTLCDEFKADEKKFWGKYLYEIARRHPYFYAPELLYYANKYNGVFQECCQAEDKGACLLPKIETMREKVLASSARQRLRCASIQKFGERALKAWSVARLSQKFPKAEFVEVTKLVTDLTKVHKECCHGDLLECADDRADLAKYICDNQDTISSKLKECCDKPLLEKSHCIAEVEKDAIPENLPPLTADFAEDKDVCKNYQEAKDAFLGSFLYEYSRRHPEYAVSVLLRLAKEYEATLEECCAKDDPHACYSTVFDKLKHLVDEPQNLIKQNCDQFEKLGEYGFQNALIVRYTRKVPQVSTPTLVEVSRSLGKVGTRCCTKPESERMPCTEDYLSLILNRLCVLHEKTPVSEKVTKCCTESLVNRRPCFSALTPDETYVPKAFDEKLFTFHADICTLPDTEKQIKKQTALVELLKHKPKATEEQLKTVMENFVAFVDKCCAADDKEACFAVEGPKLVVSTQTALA
T2 sequence (P04406 whole entry): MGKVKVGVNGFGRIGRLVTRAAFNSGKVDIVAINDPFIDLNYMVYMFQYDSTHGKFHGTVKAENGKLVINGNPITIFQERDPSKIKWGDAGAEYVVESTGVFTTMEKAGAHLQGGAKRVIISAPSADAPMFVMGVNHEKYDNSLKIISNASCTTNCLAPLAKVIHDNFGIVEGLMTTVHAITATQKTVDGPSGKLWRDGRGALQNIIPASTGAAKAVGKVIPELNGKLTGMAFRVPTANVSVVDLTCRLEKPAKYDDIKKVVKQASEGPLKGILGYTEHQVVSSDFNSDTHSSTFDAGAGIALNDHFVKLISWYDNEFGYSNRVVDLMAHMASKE

With `C#Cc1ccc(C#CN(C)S(=O)(=O)c2ccc(C)cc2)cc1` [YN-2] the “covalent labelling of bovine serum albumin” value [1] was “能够共价标记牛血清蛋白” and the “covalent labelling of proteins at live-cell level” value (shortened to “covalent labelling of proteins”) [2] was “能够在活细胞水平共价标记蛋白”.

With `C#Cc1ccc(S(=O)(=O)N(C)C#C)cc1` [YN-1] the “selective modification of acidic amino acid residues (aspartic acid and glutamic acid)” value (HepG2 cells [HepG2细胞]) was “可选择性修饰酸性氨基酸残基天冬氨酸残基及谷氨酸残基”, the “targeted binding to GAPDH” value (GAPDH) was “能靶向结合” and the “selective modification of acidic amino acid residues (aspartic acid and glutamic acid)” value [3] was “可选择性修饰酸性氨基酸残基天冬氨酸残基及谷氨酸残基”. The “targeted binding to ECH1” value (ECH1) was “能靶向结合”, the “targeted binding to ALDH1” value (ALDH1) was “能靶向结合” and the “covalent labelling of bovine serum albumin” value [1] was “能够共价标记牛血清蛋白”. For the same compound, the “targeted binding to MEK2” value (MEK2) was “能靶向结合” and the “covalent labelling of proteins” value [2] was “能够在活细胞水平共价标记蛋白”.

In the case of `C#Cc1ccc(OCc2ccc(S(=O)(=O)N(C)C#C)cc2)cc1` [YN-3], the “covalent labelling of bovine serum albumin” value [1] is reported as “能够共价标记牛血清蛋白” and the “covalent labelling of proteins” value [2] is reported as “能够在活细胞水平共价标记蛋白”.
